Reference: paper PMC10502144, “Anti-methicillin-resistant Staphylococcus aureus activity and safety evaluation of 14-O-[(5-ethoxycarbonyl-4,6-dimethylpyrimidine-2-yl) thioacetyl] mutilin (EDT)” (Scientific Reports, 2023)
Counter-ions that a name gives are not always drawn. Like-named read-outs stand apart in the source and are kept apart here.

Columns and labels:
[1] = test system: clinical isolates of MRSA; test: MIC by broth serial-dilution against 48 clinical isolates of MRSA; format: cell-based, methicillin-resistant Staphylococcus aureus; conditions: Staphylococcus aureus; for MIC: MRSA
Procedure: The tests against 48 clinical isolates of MRSA from dairy farms in 4 different provinces in China[37] were conducted in triplicate, using broth serial-dilution method in 96-well plates according to CLSI reference methods. Briefly, EDT and tiamulin fumarate used as referent drug were dissolved in 25% dimethyl sulfoxide (DMSO) to a solution with concentration of 64 μg/mL. The obtained 100 μL solutions were then added into the first column of the 96-well plate, and diluted to the tenth well with serial twofold dilutions. The last two wells were used as positive controls. The 100 μL bacterial suspension was diluted in MHB to give a final organism density of to 10^5 ~ 10^6 colony-forming unit (CFU) per 1 mL and added to all the wells, followed by incubating at 37 °C for 24 h. […] The results were expressed as an average of the MICs obtained from three independent experiments.

MRSA-337371 = test: microbe, parasite or virus in culture; format: cell-based, methicillin-resistant Staphylococcus aureus; conditions: for MIC: Staphylococcus aureus, MRSA
Procedure: We performed resistance induction tests on EDT and tiamulin which was used as a referent drug. […] Finally, MRSA was cultured for 30 generations with the same procedure. At the 31st generation, drugs were removed until 40th generation and MICs were determined in each generation.

[2] = test system: GFP expression in S. aureus ATCC 29,213; test: Green fluorescent protein (GFP) inhibition assay; format: cell-based, Staphylococcus aureus; conditions: 1 and 4 μM, co-incubation 4 h, fluorescence microscopy
Procedure: The inhibition assay against GFP expression was performed according to our previous report[41] with minor modification. Plasmids carried erythromycin resistant genes were labeled with GFP and electrotransformed into S. aureus. After screenings using erythromycin, S. aureus strain expressing GFP was then obtained and grown to mid-logarithmic phase, followed by collecting centrifugally and re-suspending with PBS buffer. The obtained suspensions were co-incubated with EDT and tiamulin with the final concentrations of 1 and 4 μM, respectively, for 4 h at 37 °C. The cells were subsequently collected by centrifugation to perform imaging using fluorescence microscopy after re-suspending with PBS buffer.

[3] = Cytotoxicity assay (CCK-8), HepG2; format: cell-based; conditions: human, HepG2 cells, read-out: cell viability
Procedure: Cytotoxicity of EDT and tiamulin was studied against human hepatocellular carcinoma cells (HepG2) and human embryonic kidney 293T (HEK293T) cells following a protocol as published in our earlier reports[41],[42]. Cells were counted and inoculated into 96-well plates with approximately10^5 cells density for incubating 24 h at 37 °C. […] The same procedure was repeated three times. The percentages of cell viability were calculated by the formula: Cell viability (%) = [Asample ‒ Anegative]/[Apositve ‒ Anegative] × 100%.

C=C[C@]1(C)C[C@@H](OC(=O)CSCCN(CC)CC)[C@]2(C)[C@H](C)CC[C@]3(CCC(=O)[C@H]32)[C@@H](C)[C@@H]1O [tiamulin, Tiamulin fumarate, reference compound]
0.5 µg/mL: MIC ([1]; strain CX1, read-out: MIC) | MIC ([1]; strain CX2, read-out: MIC) | MIC ([1]; strain CX5, read-out: MIC) | MIC ([1]; strain CX6, read-out: MIC) | MIC ([1]; strain CX7, read-out: MIC) | MIC ([1]; strain HG2, read-out: MIC) | MIC ([1]; strain HG3, read-out: MIC) | MIC ([1]; strain HG4, read-out: MIC) | MIC ([1]; strain HG5, read-out: MIC) | MIC ([1]; strain HG6, read-out: MIC) | MIC ([1]; strain HG7, read-out: MIC) | MIC ([1]; strain QY4, read-out: MIC) | MIC ([1]; strain QY5, read-out: MIC) | MIC ([1]; strain QY6, read-out: MIC) | MIC ([1]; strain QY8, read-out: MIC) | MIC ([1]; strain QY10, read-out: MIC) | MIC ([1]; strain SH3, read-out: MIC) | MIC ([1]; strain SH4, read-out: MIC) | MIC ([1]; strain SH6, read-out: MIC) | MIC ([1]; strain SH7, read-out: MIC) | MIC ([1]; strain SH9, read-out: MIC) | MIC ([1]; strain SH10, read-out: MIC) | MIC ([1]; strain SH11, read-out: MIC) | MIC ([1]; strain SH12, read-out: MIC) | MIC ([1]; strain SH13, read-out: MIC) | MIC ([1]; strain SH15, read-out: MIC) | MIC ([1]; strain SX5, read-out: MIC) | MIC ([1]; strain SX7, read-out: MIC) | MIC ([1]; strain SX8, read-out: MIC) | MIC ([1]; strain SX9, read-out: MIC) | MIC ([1]; strain SX10, read-out: MIC) | MIC ([1]; strain SX17, read-out: MIC) | MIC ([1]; strain SX18, read-out: MIC) | MIC ([1]; strain ZY1, read-out: MIC) | MIC ([1]; strain ZY2, read-out: MIC) | MIC ([1]; strain ZY4, read-out: MIC) | MIC ([1]; strain ZY5, read-out: MIC) | MIC ([1]; strain ZY7, read-out: MIC) | MIC (MRSA-337371; 24 h, read-out: MIC in the resistance development study, day 1) | MIC (MRSA-337371; 48 h, read-out: MIC in the resistance development study, day 2) | MIC (MRSA-337371; 72 h, read-out: MIC in the resistance development study, day 3) | MIC (MRSA-337371; 96 h, read-out: MIC in the resistance development study, day 4) | MIC (MRSA-337371; 120 h, read-out: MIC in the resistance development study, day 5) | MIC (MRSA-337371; 144 h, read-out: MIC in the resistance development study, day 6)
inhibited GFP expression: inhibition of GFP expression (green fluorescence intensity) [2]
0.125 µg/mL: MIC ([1]; strain SH14, read-out: MIC)
0%: inhibition at 0.0625 µg/mL ([1]; at 0.0625 µg/mL, 48 clinical isolates of MRSA, read-out: strains inhibited)
60.8%: viability at 6 h, 100 µM ([3]; HepG2, 100 μM)
recovered the initial sensitivity: sensitivity of MRSA after removing drugs (MRSA-337371; after removing drugs and culturing for additional 10 generations)
0.125 to 1 µg/mL: MIC ([1]; range over 48 clinical isolates of MRSA, read-out: MIC values against 48 strains)
55.6%: viability at 6 h, 200 µM ([3]; HepG2, 200 μM)
eightfold: increase in the MIC values (MRSA-337371; at 22 generations)
1 µg/mL: MIC ([1]; strain CX9, read-out: MIC) | MIC ([1]; strain SX6, read-out: MIC) | MIC ([1]; strain SX16, read-out: MIC) | MIC ([1]; strain ZY6, read-out: MIC) | MIC ([1]; strain ZY8, read-out: MIC) | MIC (MRSA-337371; 168 h, read-out: MIC in the resistance development study, day 7) | MIC (MRSA-337371; 192 h, read-out: MIC in the resistance development study, day 8) | MIC (MRSA-337371; 216 h, read-out: MIC in the resistance development study, day 9) | MIC (MRSA-337371; 240 h, read-out: MIC in the resistance development study, day 10) | MIC (MRSA-337371; 264 h, read-out: MIC in the resistance development study, day 11) | MIC (MRSA-337371; 288 h, read-out: MIC in the resistance development study, day 12) | MIC (MRSA-337371; 312 h, read-out: MIC in the resistance development study, day 13) | MIC (MRSA-337371; 360 h, read-out: MIC in the resistance development study, day 15)
0.25 µg/mL: MIC ([1]; strain HG1, read-out: MIC) | MIC ([1]; strain SH8, read-out: MIC) | MIC ([1]; strain ZY3, read-out: MIC) | MIC ([1]; strain ZY9, read-out: MIC)
2 µg/mL: MIC (MRSA-337371; 336 h, read-out: MIC in the resistance development study, day 14) | MIC (MRSA-337371; 384 h, read-out: MIC in the resistance development study, day 16) | MIC (MRSA-337371; 408 h, read-out: MIC in the resistance development study, day 17) | MIC (MRSA-337371; 432 h, read-out: MIC in the resistance development study, day 18) | MIC (MRSA-337371; 456 h, read-out: MIC in the resistance development study, day 19) | MIC (MRSA-337371; 504 h, read-out: MIC in the resistance development study, day 21) | MIC (MRSA-337371; read-out: MIC in the resistance development study, day 33, drugs removed) | MIC (MRSA-337371; read-out: MIC in the resistance development study, day 34, drugs removed) | MIC (MRSA-337371; read-out: MIC in the resistance development study, day 35, drugs removed)
4 µg/mL: MIC (MRSA-337371; 480 h, read-out: MIC in the resistance development study, day 20) | MIC (MRSA-337371; 528 h, read-out: MIC in the resistance development study, day 22) | MIC (MRSA-337371; 552 h, read-out: MIC in the resistance development study, day 23) | MIC (MRSA-337371; 576 h, read-out: MIC in the resistance development study, day 24) | MIC (MRSA-337371; 600 h, read-out: MIC in the resistance development study, day 25) | MIC (MRSA-337371; 624 h, read-out: MIC in the resistance development study, day 26) | MIC (MRSA-337371; 648 h, read-out: MIC in the resistance development study, day 27) | MIC (MRSA-337371; 672 h, read-out: MIC in the resistance development study, day 28) | MIC (MRSA-337371; 696 h, read-out: MIC in the resistance development study, day 29) | MIC (MRSA-337371; read-out: MIC in the resistance development study, day 30) | MIC (MRSA-337371; read-out: MIC in the resistance development study, day 31, drugs removed) | MIC (MRSA-337371; read-out: MIC in the resistance development study, day 32, drugs removed)
twofold: increase in the MIC values (MRSA-337371; after 7 generations of continuous culture of MRSA)
